Assay results: patent publication US5525595A, “3- or 4-glycosyloxybenzopyran derivative and antiallergic agent containing the derivative as active ingredient” (priority 1993, dated 1996)

Tests used:
[1] = system: homologous passive cutaneous anaphylaxis (PCA) reaction; test: Effect on homologous passive cutaneous anaphylaxis (PCA) reaction in rats; type: in vivo, rats (Male wistar rats); conditions: Rattus norvegicus, 0.5 h; 100 mg/kg oral, 1 hour before antigen, rats; Table 3
Method: This experimental animal model is caused by immediate type allergic reaction, namely, antigen-antibody reaction. In the following, the method of this pharmacological test will be explained.
Method: Male wistar rats (9 weeks old) were intradermally administered 0.05 ml of anti-serum against trinitrophenylated ascaris (TNP-As) into two sites on the shaved dorsal skin. 48 hours later, 3-glycosyloxybenzopyran derivatives and 4-glycosyloxybenzopyran derivatives (test compounds) suspended in 0.5% sodium carboxymethylcellulose (CMCNa) were given orally at a dose of 100 mg/kg to the animals. 1 hour after administration of Test compounds, the animals were induced anaphylaxis by injection of saline (1 ml) dissolving 5 mg of Evans Blue and 1 mg of TNP-As into the tail vein of the animals. 30 minutes after induction of anaphylaxis, animals were anesthetized by ether and killed by bleeding, and were flayed dorsal skin. The leakage of dye was assessed by measuring the diameter (mean of shortest and longest diameter) of the blue spot on the inside surface of dorsal skin. As vehicle control group, only 0.5% CMCNa solution was administered orally, and as positive control group, Tranilast suspended in 0.5% CMCNa were administered orally at a dose of 100 mg/kg to the animals with the same method as the test compounds groups. Each experimental group consisted of 5 rats. [formula] In equation 1: A: leakage of dye in vehicle control group
B: leakage of dye in test compound group or in positive control group
The anti-allergic activity of the compounds of the present invention were compared with that of analogous compounds which were published in the Patent (EP-A-0598117) by PCA reaction. This pharmacological test was performed according to the method described in Test Example 1.

[2] = system: contact dermatitis induced by picryl chloride; test: Effect on contact dermatitis induced by picryl chloride in mice (delayed type hypersensitization); type: in vivo; conditions: Mus musculus; 100 mg/kg oral, ear thickness 24 hours after challenge; Table 6; read-out: Inhibition (%) against the increase of ear thickness
Method: The delayed type hypersensitization is inhibited by steroid, but can not be effected by known anti-allergic agents. In the following, the method of the pharmacological test will be explained.
Method: Mice, shaved their abdominal skin on previous day, were immunized by applying 0.1 ml of acetone containing 7 mg of picryl chloride to the skin of the abdomen. 7 days after immunization, the thickness of the ear was measured with a dial thickness gauge, then mice were challenged by painting 5 μl of 1% picryl chloride olive oil solution to each side skin of left ear. 24 hours after challenge, the thickness of the left ear was measured again and the increase (%) of thickness was calculated according to equation 2. The compounds of the present invention (test compounds) suspended in 0.5% CMCNa were forcibly administered orally at a dose of 100 mg/kg at 1 hour before and 16 hours after challenge. As vehicle control group, only 0.5% CMCNa solution were administered orally, and as positive control group, Prednisolone, steroid hormone, and Tranilast were administered orally at the doses of 10 mg/kg and 100 mg/kg, respectively.
Increase (%)=(A-B)/B×100 (Equation 2)
A: thickness of the ear at 24 hours after challenge
B: thickness of the ear before challenge
Inhibition(%)=(C-D)/C×100 (equation 3)
C: The increase (%) in vehicle control group
D: The increase (%) in test compounds group or positive control group

[3] = system: airway resistance in experimental asthma model; test: Effect on experimental asthma model in guinea pigs; type: in vivo, guinea pigs (Male hadley); conditions: Cavia porcellus; 100 mg/kg oral, OVA challenge, guinea pigs; Table 7
Method: The asthma is typical allergic disease and we carried out this pharmacological test by well known experimental asthma model in guinea pigs in order to confirm that the compounds of the present invention suppress the asthma. In the following, the method of the pharmacological test will be explained.
Method: Male hadley guinea pigs were immunized by intraperitoneal injection of saline (1 ml) containing 5 mg of ovalbumine (OVA) three times at interval of one week. 2 weeks after final immunization, the animals were challenged by inhalation of 1% OVA-saline solution for 1 minute and then the airway resistance of the animals were measured for 30 minutes with PULMOS-1 (Medical Interface Project Station Inc.) after the inhalation. The compounds of the present invention (test compounds) suspended in 0.5% CMCNa were given orally at a dose of 100 mg/kg. As positive control group, Disodium Cromoglicate (DSCG), well known anti-allergic agent, in saline were injected at a dose of 20 mg/kg into the vein of the animals. As vehicle control group, only 0.5% CMCNa solution were given orally. The inhibition (%) of the airway resistance in vehicle control group was calculated according to equation 5 and the result was shown in Table 7. Each experimental group consisted of 5 guinea pigs. [formula] In equation 5: A: Maximum airway resistance in vehicle control group
B: Maximum airway resistance in test compounds group or positive control group

| Compound | inhibition in vivo at 100 mg/kg [1] | inhibition in vivo at 100 mg/kg [2] | inhibition in vivo at 100 mg/kg [3] |
| --- | --- | --- | --- |
| O=c1oc2cc(O)ccc2c(O[C@H]2O[C@H](CO)[C@@H](O)[C@H](O)[C@@H]2O)c1O [compound 77] | 42.7% | 39.6% | 37.3% |
| CC(=O)Oc1ccc2c(OCc3ccccc3)c(O[C@@H]3O[C@H](COCc4ccccc4)[C@@H](OCc4ccccc4)[C@H](OCc4ccccc4)[C@H]3OCc3ccccc3)c(=O)oc2c1 [compound 12, 4-benzyloxy-7-acetoxy-3-(tetra-O-benzyl-β-D-glucopyranosyloxy)-2H-1-benzopyran-2-one] | 41.3% | 40.8% | 39.2% |
| CC(=O)Oc1ccc2c(O)c(O[C@@H]3O[C@H](CO)[C@H](O)[C@H](O)[C@H]3O)c(=O)oc2c1 [compound 42] | 52.7% | 52.1% | 62.6% |
| O=C(Oc1ccc2c(O)c(O[C@@H]3O[C@H](CO)[C@H](O)[C@H](O)[C@H]3O)c(=O)oc2c1)c1ccccc1 [compound 39] | 58.3% | 54.3% | 64.1% |
| CC(C)=CCC/C(C)=C/COc1ccc2c(O[C@@H]3O[C@H](CO)[C@@H](O)[C@H](O)[C@H]3O)c(O)c(=O)oc2c1 [compound 71] | 57.4% | 57.1% | 65.2% |
| CCCCCCCCOc1ccc2c(O[C@@H]3O[C@H](CO)[C@H](O)[C@H](O)[C@H]3O)c(O)c(=O)oc2c1 [compound 94] | 63.3% | 64.7% | 82.6% |
| O=C(Oc1ccc2c(O[C@H]3O[C@H](CO)[C@@H](O)[C@H](O)[C@@H]3O)c(O)c(=O)oc2c1)c1ccccc1 [compound 86] | 43% | 39.1% | 41.2% |
| CCCCCCCCCCOc1ccc2c(O[C@@H]3O[C@H](CO)[C@H](O)[C@H](O)[C@H]3O)c(O)c(=O)oc2c1 [compound 95] | 65.1% | 65.1% | 75.4% |
| O=c1oc2cc(OCc3ccccc3)ccc2c(O[C@@H]2O[C@H](CO)[C@H](O)[C@H](O)[C@H]2O)c1O [compound 104] | 44.2% | 46.1% | 63.3% |
| CCCCOc1ccc2c(O[C@@H]3O[C@H](CO)[C@H](O)[C@H](O)[C@H]3O)c(O)c(=O)oc2c1 [compound 93] | 57.6% | 59.9% | 60.5% |
| CCCCCCCCOc1ccc2c(O[C@@H]3O[C@H](CO)[C@@H](O)[C@H](O)[C@H]3O)c(O)c(=O)oc2c1 [compound 66] | 63.8% | 62.5% | 74.1% |
| CCCCCCCCCCCCOc1ccc2c(O[C@@H]3O[C@H](CO)[C@H](O)[C@H](O)[C@H]3O)c(O)c(=O)oc2c1 [compound 96] | 56.6% | 57.8% | 73.1% |
| CCCCCCOc1ccc2c(O[C@H]3O[C@H](CO)[C@@H](O)[C@H](O)[C@@H]3O)c(O)c(=O)oc2c1 [compound 122] | 52.3% | 53.2% | 62.1% |
| COc1ccc2c(O)c(O[C@H]3O[C@H](COC(C)=O)[C@@H](OC(C)=O)[C@H](OC(C)=O)[C@@H]3OC(C)=O)c(=O)oc2c1 [compound 8, 7-methoxy-4-hydroxy-3-(tetra-O-acetyl-α-D-mannopyranosyloxy)-2H-1-benzopyran-2-one] | 45.2% | 45.3% | 46.7% |
| COc1ccc2c(O[C@@H]3O[C@H](CO)[C@@H](O)[C@H](O)[C@H]3O)c(OC(C)=O)c(=O)oc2c1 [compound 65, 7-methoxy-3-acetoxy-4-(β-D-glucopyranosyloxy)-2H-1-benzopyran-2-one] | 45.6% | 46.3% | 46.9% |
| CCCCCCOc1ccc2c(O[C@@H]3O[C@H](CO)[C@@H](O)[C@H](O)[C@H]3O)c(O)c(=O)oc2c1 [compound 121] | 63.7% | 63.7% | 75.1% |
| CC(C)=CCC/C(C)=C/COc1ccc2c(O)c(O[C@H]3O[C@H](CO)[C@@H](O)[C@H](O)[C@@H]3O)c(=O)oc2c1 [compound 29] | 45.6% | 53.6% | 56.1% |
| CC(C)Oc1ccc2c(O[C@@H]3O[C@H](CO)[C@@H](O)[C@H](O)[C@H]3O)c(O)c(=O)oc2c1 [compound 69] | 57.2% | 56.4% | 68.3% |
| COc1ccc2c(O)c(O[C@@H]3O[C@H](COC(C)=O)[C@H](OC(C)=O)[C@H](OC(C)=O)[C@H]3OC(C)=O)c(=O)oc2c1 [compound 9, 7-methoxy-4-hydroxy-3-(tetra-O-acetyl-β-D-galactopyranosyloxy)-2H-1-benzopyran-2-one] | 51.3% | 50.1% | 58.4% |
| CC(C)Oc1ccc2c(O)c(O[C@H]3O[C@H](CO)[C@@H](O)[C@H](O)[C@@H]3O)c(=O)oc2c1 [compound 27] | 47.8% | 51.2% | 56.7% |
| COc1ccc2c(O)c(O[C@H]3O[C@H](CO)[C@@H](O)[C@H](O)[C@@H]3O)c(=O)oc2c1 [compound 10, 7-methoxy-4-hydroxy-3-(α-D-mannopyranosyloxy)-2H-1-benzopyran-2-one] | 50.3% | 47.5% | 49% |
| CCCCCCCCCCCCOc1ccc2c(O[C@H]3O[C@H](CO)[C@@H](O)[C@H](O)[C@@H]3O)c(O)c(=O)oc2c1 [compound 82] | 47.3% | 48.7% | 55.1% |
| CC(C)Oc1ccc2c(O[C@H]3O[C@H](CO)[C@@H](O)[C@H](O)[C@@H]3O)c(O)c(=O)oc2c1 [compound 83] | 49.3% | 49.1% | 46.9% |
| CCC=CCCOc1ccc2c(O)c(O[C@H]3O[C@H](CO)[C@@H](O)[C@H](O)[C@@H]3O)c(=O)oc2c1 [compound 28] | 53.4% | 50.3% | 57.2% |
| CCCCCCCCCCCCOc1ccc2c(O[C@H]3O[C@H](CO)[C@@H](O)[C@H](O)[C@@H]3O)c(OC(C)=O)c(=O)oc2c1 [compound 89] | 43.7% | 41.2% | 43.2% |
| O=C(Oc1ccc2c(O[C@@H]3O[C@H](CO)[C@H](O)[C@H](O)[C@H]3O)c(O)c(=O)oc2c1)c1ccccc1 [compound 100] | 42.6% | 44.9% | 67.8% |
